Where “and” joins values, the source holds several entries; their conditions need not be identical. Equal values may be shown once.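 Assay format: 96-well plates, 48-hour exposure. GI50 marks 50% less growth. At the TGI there is no net growth.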
Assays:
Assay in all cases: NCI tumour cell line growth inhibition, 48 h
[1] = system: COLO 205 colon
[2] = system: HCT-15 colon
[3] = system: HL-60(TB) leukemia
[4] = system: NCI-H226 lung
[5] = system: NCI-H23 lung
[6] = system: OVCAR-5 ovarian
[7] = system: DU-145 prostate
[8] = system: HS 578T breast
[9] = system: MDA-MB-231 breast
[10] = system: NCI/ADR-RES ovarian

Compound | TGI [1] | TGI [2] | TGI [3] [µM] | TGI [4] [µM] | TGI [5] | TGI [6] | GI50 [2] [µM] | TGI [7] | TGI [8] | TGI [9] | TGI [10] | GI50 [1] [µM] | GI50 [7] [nM] | GI50 [8] [nM] | GI50 [9] [µM] | GI50 [5] [µM] | GI50 [10] [µM] | GI50 [6] [µM] | GI50 [4] [µM] | GI50 [3] [nM]
CC(C)(C)c1cc(C(=O)O)c(C(c2ccccc2)c2ccccc2C(=O)O)c(C(=O)O)c1 (stereo unspecified) | > 100 µM | > 100 µM | > 100 | 76.7 | > 100 µM | > 100 µM |  |  |  |  |  |  |  |  |  |  |  |  |  | 
CCCCOP1(=O)C=CC(Cl)=C(C)C1 (stereo unspecified) | 97.7 µM | 32.8 µM | 39.6 | 41.9 |  |  |  |  |  |  |  |  |  |  |  |  |  |  |  | 
O=C1Cc2ccccc2CCc2ccccc21 | > 100 µM | > 100 µM | > 100 | > 100 | > 100 µM | > 100 µM |  |  |  |  |  |  |  |  |  |  |  |  |  | 
NC(=O)c1ncn(C2OC(CO)C(O)C2O)c1NC(=S)NC(=O)c1ccccc1 (stereo unspecified) | > 100 µM |  | > 100 | > 100 | > 100 µM | > 100 µM |  |  |  |  |  |  |  |  |  |  |  |  |  | 
O=c1ncccn1C1OC(CO)C(O)C1F (stereo unspecified) | > 100 µM | > 100 µM | > 100 | > 100 | > 100 µM | > 100 µM | > 100 |  |  |  |  |  |  |  |  |  |  |  |  | 
CN1C(=O)CC2(C)c3cc(C=O)ccc3N(C)C12 (stereo unspecified) | > 100 µM | > 100 µM |  | > 100 | > 100 µM | > 100 µM |  |  |  |  |  |  |  |  |  |  |  |  |  | 
Cc1cc(C)c2nccc(NCCCN(C)C)c2c1[N+](=O)[O-] | 28.5 µM | 30.7 µM | 78.1 |  | 37.2 µM | > 100 µM |  | > 100 µM | > 100 µM | > 100 µM |  |  |  |  |  |  |  |  |  | 
Cc1cc(N(CCC#N)CCC#N)ccc1/C=C/C(=O)Nc1ccccc1Cl | > 100 µM | > 100 µM | > 100 | > 100 | > 100 µM | > 100 µM |  |  |  |  |  |  |  |  |  |  |  |  |  | 
CC1(C)Oc2ccccc2N2O[C@@H]3C(=O)N(c4ccccc4)C(=O)[C@@H]3C21c1ccccc1 (stereo partly specified) | > 100 µM |  |  | > 100 | > 100 µM | > 100 µM |  |  |  |  |  |  |  |  |  |  |  |  |  | 
N=C(N)SCC(=O)O | > 100 µM | > 100 µM |  | > 100 | > 100 µM | > 100 µM |  | > 100 µM | > 100 µM | > 100 µM | > 100 µM |  |  |  |  |  |  |  |  | 
Nc1nc(Cl)cc(NCCCCCCNc2cc(Cl)nc(N)n2)n1 | > 100 µM | > 100 µM | > 100 | > 100 | > 100 µM | > 100 µM |  |  |  |  |  |  |  |  |  |  |  |  |  | 
CCCC(=O)Nc1cn(COC)c(C(=O)N2C[C@H]3C[C@@]34C2=CC(=O)c2[nH]cc(C)c24)n1 | 15.9 µM and 32.4 µM | 50 µM and 72.2 µM |  | 39.4 | 11.8 µM and 16.7 µM | 50 µM and > 100 µM |  | 5 µM and 11.4 µM | 43.1 µM and > 100 µM | 39.7 µM and > 100 µM | 15.8 µM and 43.6 µM | 4.41 | 2560 | 20900 | 10.7 | 2.59 | 12 | 6.13 |  | 
CC[C@H](C)[C@H](NC(=O)N[C@@H](C)c1ccccc1)C(=O)N(C)[C@H](C[C@@H](OC(C)=O)c1nc(C(=O)N[C@@H](Cc2ccccc2)C[C@H](C)C(=O)OC)cs1)C(C)C | 57.1 µM | > 100 µM |  | > 100 | > 100 µM | > 100 µM | 25.4 | > 100 µM | 56.7 µM | 63.8 µM | > 100 µM | 20.1 | 32800 | 15900 | 20.7 | 28.2 | 45.8 | 27.9 | 44.1 | 
CCC1(Cl)C(=O)NC(=O)N(C2CC(O)C(CO)O2)C1N=[N+]=[N-] (stereo unspecified) | > 100 µM |  | > 100 |  | > 100 µM | > 100 µM |  |  |  |  |  |  |  |  |  |  |  |  |  | 
C=CCN(N=O)C(=O)ON1C(=O)CCC1=O | > 100 µM | > 100 µM | > 100 |  | > 100 µM | > 100 µM |  |  |  |  |  |  |  |  |  |  |  |  |  | 
O=C(O)C(Cc1c[nH]c2ccccc12)N1C(=O)c2ccccc2C1=O (stereo unspecified) | > 100 µM | > 100 µM |  | > 100 | > 100 µM | > 100 µM |  | > 100 µM | > 100 µM | > 100 µM | > 100 µM |  |  |  |  |  |  |  |  | 
O=C(/C(=N/Nc1cn[nH]c(=O)c1Cl)c1ccccc1)c1ccccc1 | 49.4 µM | 51.3 µM | > 100 | > 100 | 66.6 µM |  |  | 54.3 µM |  | 87.3 µM | 59.9 µM |  |  |  |  |  |  |  |  | 
CCCCCCCCCCCCCCCCCCNC(=O)[C@H]1CSC(c2ccc(F)c(OC)c2)N1 (stereo partly specified) |  |  | 1.62 | 1.58 | 5.05 µM | 1.91 µM |  | > 50 µM | 2.97 µM | 1.67 µM | 2.41 µM |  | 1790 | 1240 | 0.842 | 1.42 | 1.07 | 1 | 0.773 | 670
N#CC1=C(N)NC(=S)C(C#N)C12Nc1ccccc1S2 (stereo unspecified) | 60.6 µM | 42.3 µM | > 100 |  | 33.2 µM |  | 15 |  |  | 32.9 µM | 43.7 µM | 25.5 |  |  | 11 | 13.4 | 14.3 |  |  | 35100
COc1ccc(-c2nc(/C=N/Nc3cc(C)nc4ccc(Br)cc34)c(C)o2)cc1 | 3.35 µM | 2.33 µM | 3.47 | 4.64 |  | 3.41 µM | 0.902 | 3.34 µM | 4.1 µM | 3.72 µM | 4.48 µM | 1.67 | 1750 | 2020 | 1.93 |  | 2.03 | 1.95 | 2.09 | 1490
COc1cc(-c2nn3c(=O)n(-c4ccc(Cl)cc4)c(=O)nc3s2)cc(OC)c1OC | > 100 µM | > 100 µM | > 100 | > 100 | > 100 µM | > 100 µM | > 50 |  |  |  |  | > 50 |  |  |  | > 50 |  |  | > 50 | > 100000
CC12O[Te]34OC1(C)C(C)(O3)C2(C)O4 | 31.1 µM | 54 µM |  | 44.6 | 34.8 µM | 23.7 µM |  |  |  |  |  |  |  |  |  |  |  |  |  | 
C/C(=N\O)[C@H]1CC[C@@]2(C)[C@@H]3CC[C@H]4C(C)(C)/C(=N/O)CC[C@@]45CC35CC[C@]12C (stereo partly specified) | > 16.7 µM | 10.5 µM | > 16.7 | > 16.7 | > 16.7 µM |  | 3.75 | 6.2 µM | 7.54 µM | > 16.7 µM | 7.93 µM | 5.75 | 2850 | 2230 | 7.46 | 4.96 | 2.76 |  | 5.03 | 1620
